From patent US8802597B2, “Herbicidal pyrimidines” (E I du Pont de Nemours and Company, priority 2003, dated 2014)

Columns and labels:
Test in all cases: Test C pre/postemergence
Format in all cases: in vivo
kochia (Kochia scoparia) = conditions: Preemergence
How it was run: (§1)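 Applications: preemergence onto seeded soil and postemergence onto 1- to 4-leaf seedlings, compound carried in non-phytotoxic solvent plus surfactant. Kept in greenhouse 12 to 14 days. Scored visually relative to untreated controls, 0 (no effect) to 100 (complete control).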

[1] = test system: giant foxtail (Setaria faberii); conditions: Preemergence
How it was run: as §1

[2] = test system: velvetleaf (Abutilon theophrasti); conditions: Preemergence, scale 0 to 100, 0 no effect, 100 complete control
How it was run: as §1

[3] = test system: morningglory (Ipomoea coccinea); conditions: Preemergence
How it was run: as §1

[4] = test system: cocklebur (Xanthium strumarium); conditions: Preemergence
How it was run: as §1

[5] = test system: pigweed (Amaranthus retroflexus); conditions: Preemergence, scale 0 to 100, 0 no effect, 100 complete control
How it was run: as §1

[6] = test system: common (oilseed) sunflower (Helianthus annuus); conditions: Preemergence, scale 0 to 100, 0 no effect, 100 complete control
How it was run: as §1

[7] = test system: crabgrass (Digitaria sanguinalis); conditions: Preemergence
How it was run: as §1

[8] = test system: yellow nutsedge (Cyperus esculentus); conditions: Preemergence, scale 0 to 100, 0 no effect, 100 complete control
How it was run: as §1

[9] = test system: common ragweed (Ambrosia elatior); conditions: Preemergence, scale 0 to 100, 0 no effect, 100 complete control
How it was run: as §1

[10] = test system: eastern black nightshade (Solanum ptycanthum); conditions: Preemergence, scale 0 to 100, 0 no effect, 100 complete control
How it was run: as §1

[11] = test system: woolly cupgrass (Eriochloa villosa); conditions: Preemergence
How it was run: as §1

[12] = 16 g ai/ha, scale 0 to 100, 0 no effect, 100 complete control
[13] = 31 g ai/ha, scale 0 to 100, 0 no effect, 100 complete control
[14] = 62 g ai/ha, scale 0 to 100, 0 no effect, 100 complete control

SMILES: CCCOC(=O)c1nc(C2CC2)nc(N)c1Cl [Compound 75]
- Plant response rating, Kochia (kochia (Kochia scoparia); [12]): 70
- Plant response rating, Kochia (kochia (Kochia scoparia); [13]): 80
- Plant response rating, Kochia (kochia (Kochia scoparia); [14]): 100
- Plant response rating, Kochia (kochia (Kochia scoparia); 125 g ai/ha, scale 0 to 100): 100
- Plant response rating, Foxtail, Giant [1, 12]: 0
- Plant response rating, Foxtail, Giant [1, 13]: 0
- Plant response rating, Foxtail, Giant [1, 14]: 0
- Plant response rating, Foxtail, Giant ([1]; 125 g ai/ha, scale 0 to 100): 10
- Plant response rating, Velvetleaf ([2]; 16 g ai/ha): 5
- Plant response rating, Velvetleaf ([2]; 31 g ai/ha): 60
- Plant response rating, Velvetleaf ([2]; 62 g ai/ha): 85
- Plant response rating, Morningglory [3, 12]: 50
- Plant response rating, Morningglory [3, 13]: 90
- Plant response rating, Morningglory [3, 14]: 95
- Plant response rating, Morningglory ([3]; 125 g ai/ha, scale 0 to 100): 100
- Plant response rating, Cocklebur [4, 12]: 55
- Plant response rating, Cocklebur [4, 13]: 90
- Plant response rating, Cocklebur [4, 14]: 95
- Plant response rating, Cocklebur ([4]; 125 g ai/ha, scale 0 to 100): 100
- Plant response rating, Pigweed ([5]; 16 g ai/ha): 70
- Plant response rating, Pigweed ([5]; 31 g ai/ha): 75
- Plant response rating, Pigweed ([5]; 62 g ai/ha): 80
- Plant response rating, Sunflower ([6]; 16 g ai/ha): 50
- Plant response rating, Sunflower ([6]; 31 g ai/ha): 70
- Plant response rating, Sunflower ([6]; 62 g ai/ha): 100
- Plant response rating, Crabgrass [7, 12]: 0
- Plant response rating, Crabgrass [7, 13]: 10
- Plant response rating, Crabgrass [7, 14]: 20
- Plant response rating, Crabgrass ([7]; 125 g ai/ha, scale 0 to 100): 60
- Plant response rating, Nutsedge, Yellow ([8]; 16 g ai/ha): 0
- Plant response rating, Nutsedge, Yellow ([8]; 31 g ai/ha): 0
- Plant response rating, Nutsedge, Yellow ([8]; 62 g ai/ha): 0
- Plant response rating, Ragweed ([9]; 16 g ai/ha): 20
- Plant response rating, Ragweed ([9]; 31 g ai/ha): 70
- Plant response rating, Ragweed ([9]; 62 g ai/ha): 80
- Plant response rating, Ragweed [9]: 90
- Plant response rating, Nightshade ([10]; 16 g ai/ha): 0
- Plant response rating, Nightshade ([10]; 31 g ai/ha): 50
- Plant response rating, Nightshade ([10]; 62 g ai/ha): 70
- Plant response rating, Nightshade [10]: 100
- Plant response rating, Cupgrass, Woolly [11, 12]: 0
- Plant response rating, Cupgrass, Woolly [11, 13]: 0
- Plant response rating, Cupgrass, Woolly [11, 14]: 60
- Plant response rating, Cupgrass, Woolly ([11]; 125 g ai/ha, scale 0 to 100): 60
